Laboratory results from ChEMBL document CHEMBL5252597, “Synthesis and biological evaluation of N-(3-fluorobenzyl)-4-(1-(methyl-d3)-1H-indazol-5-yl)-5-(6-methylpyridin-2-yl)-1H-imidazol-2-amine as a novel, potent ALK5 receptor inhibitor” (Bioorg Med Chem Lett, 2023).
One block for each molecule: values may come before it.

Legend:
[1] = molecular target: Cytochrome P450 3A4 (Homo sapiens, UniProt P08684); assay: Inhibition of CYP3A4 (unknown origin); assay type: ADME
[2] = molecular target: Cytochrome P450 2D6 (Homo sapiens, UniProt P10635); assay: Inhibition of CYP2D6 (unknown origin); assay type: ADME
Cytochrome P450 2D6, sequence (P10635 whole entry): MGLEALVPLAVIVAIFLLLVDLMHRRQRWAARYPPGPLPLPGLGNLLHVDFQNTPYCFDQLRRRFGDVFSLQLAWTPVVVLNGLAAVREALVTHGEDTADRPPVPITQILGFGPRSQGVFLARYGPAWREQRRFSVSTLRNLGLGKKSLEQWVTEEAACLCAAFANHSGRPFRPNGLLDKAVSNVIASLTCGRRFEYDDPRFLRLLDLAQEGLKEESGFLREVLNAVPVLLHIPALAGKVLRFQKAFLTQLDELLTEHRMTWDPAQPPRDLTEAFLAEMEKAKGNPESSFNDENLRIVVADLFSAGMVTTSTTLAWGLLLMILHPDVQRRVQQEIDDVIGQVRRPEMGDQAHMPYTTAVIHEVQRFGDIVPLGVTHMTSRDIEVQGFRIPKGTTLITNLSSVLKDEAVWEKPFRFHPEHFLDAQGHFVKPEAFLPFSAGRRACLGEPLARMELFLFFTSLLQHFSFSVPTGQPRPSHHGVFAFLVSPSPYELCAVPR

[3] = molecular target: Cytochrome P450 2C19 (Homo sapiens, UniProt P33261); assay: Inhibition of CYP2C19 (unknown origin); assay type: ADME
Cytochrome P450 2C19, sequence (P33261 whole entry): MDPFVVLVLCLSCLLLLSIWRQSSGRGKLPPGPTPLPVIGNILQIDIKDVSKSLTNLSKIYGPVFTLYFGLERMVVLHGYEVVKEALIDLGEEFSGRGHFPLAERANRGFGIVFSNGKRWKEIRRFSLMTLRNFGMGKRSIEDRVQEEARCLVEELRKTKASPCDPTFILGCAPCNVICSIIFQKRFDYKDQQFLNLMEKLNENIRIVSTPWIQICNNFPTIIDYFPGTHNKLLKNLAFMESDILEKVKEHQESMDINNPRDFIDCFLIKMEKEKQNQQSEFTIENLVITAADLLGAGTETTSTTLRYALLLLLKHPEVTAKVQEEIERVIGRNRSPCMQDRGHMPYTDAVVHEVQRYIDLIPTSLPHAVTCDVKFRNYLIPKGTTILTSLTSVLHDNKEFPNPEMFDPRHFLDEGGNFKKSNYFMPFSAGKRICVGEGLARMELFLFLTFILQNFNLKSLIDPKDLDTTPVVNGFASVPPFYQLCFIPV

[4] = molecular target: Cytochrome P450 2C9 (Homo sapiens, UniProt P11712); assay: Inhibition of CYP2C9 (unknown origin); assay type: ADME
Cytochrome P450 2C9, sequence (P11712 whole entry): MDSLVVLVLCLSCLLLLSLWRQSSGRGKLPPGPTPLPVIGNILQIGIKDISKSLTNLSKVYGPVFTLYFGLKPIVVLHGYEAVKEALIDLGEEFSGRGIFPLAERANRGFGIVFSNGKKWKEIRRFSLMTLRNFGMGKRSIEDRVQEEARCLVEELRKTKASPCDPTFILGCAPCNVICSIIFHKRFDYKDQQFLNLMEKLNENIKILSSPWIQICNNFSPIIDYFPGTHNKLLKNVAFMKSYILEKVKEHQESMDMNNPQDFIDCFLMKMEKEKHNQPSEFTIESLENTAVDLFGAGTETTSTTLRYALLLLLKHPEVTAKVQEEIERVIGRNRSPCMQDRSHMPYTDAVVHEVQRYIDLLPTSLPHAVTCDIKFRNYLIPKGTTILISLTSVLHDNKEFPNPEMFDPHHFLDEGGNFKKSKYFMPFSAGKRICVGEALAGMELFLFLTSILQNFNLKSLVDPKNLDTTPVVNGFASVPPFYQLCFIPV

[5] = molecular target: T1, Cytochrome P450 1A2 (Homo sapiens, UniProt P05177); assay: Inhibition of CYP1A2 (unknown origin); assay type: ADME
T1 sequence (P05177 whole entry): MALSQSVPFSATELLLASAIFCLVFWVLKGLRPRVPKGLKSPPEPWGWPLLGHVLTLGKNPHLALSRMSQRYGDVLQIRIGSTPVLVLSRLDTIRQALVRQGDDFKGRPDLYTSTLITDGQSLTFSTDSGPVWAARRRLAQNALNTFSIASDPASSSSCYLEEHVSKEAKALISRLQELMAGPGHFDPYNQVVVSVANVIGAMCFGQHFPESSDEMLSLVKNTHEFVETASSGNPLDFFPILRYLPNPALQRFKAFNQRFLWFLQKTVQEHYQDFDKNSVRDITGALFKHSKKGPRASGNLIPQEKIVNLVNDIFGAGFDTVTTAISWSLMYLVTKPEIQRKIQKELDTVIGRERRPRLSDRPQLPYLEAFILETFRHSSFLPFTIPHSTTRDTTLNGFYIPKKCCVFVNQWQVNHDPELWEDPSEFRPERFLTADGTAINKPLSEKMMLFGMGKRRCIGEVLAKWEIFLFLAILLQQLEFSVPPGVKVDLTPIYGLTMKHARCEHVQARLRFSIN

[6] = molecular target: T2, Activin receptor type-1 (Homo sapiens, UniProt Q04771); assay: Inhibition of human ALK2 by […] assay
T2 sequence (Q04771 whole entry): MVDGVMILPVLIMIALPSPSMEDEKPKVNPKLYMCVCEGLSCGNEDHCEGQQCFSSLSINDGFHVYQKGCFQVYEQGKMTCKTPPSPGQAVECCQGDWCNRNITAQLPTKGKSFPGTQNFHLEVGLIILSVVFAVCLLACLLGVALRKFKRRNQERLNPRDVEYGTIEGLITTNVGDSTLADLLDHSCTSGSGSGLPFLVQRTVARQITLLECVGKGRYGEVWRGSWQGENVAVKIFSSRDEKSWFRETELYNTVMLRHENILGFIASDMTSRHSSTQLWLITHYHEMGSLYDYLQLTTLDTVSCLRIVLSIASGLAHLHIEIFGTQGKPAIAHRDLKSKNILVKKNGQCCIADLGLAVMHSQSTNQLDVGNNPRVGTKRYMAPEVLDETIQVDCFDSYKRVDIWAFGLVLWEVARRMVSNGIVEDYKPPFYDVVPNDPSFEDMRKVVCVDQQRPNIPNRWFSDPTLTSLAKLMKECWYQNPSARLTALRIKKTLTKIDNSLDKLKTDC

[7] = molecular target: T3, Cytochrome P450 1A2 (Mus musculus, UniProt P00186); assay: Inhibition of mouse CYP1A2; assay type: ADME
T3 sequence (P00186 whole entry): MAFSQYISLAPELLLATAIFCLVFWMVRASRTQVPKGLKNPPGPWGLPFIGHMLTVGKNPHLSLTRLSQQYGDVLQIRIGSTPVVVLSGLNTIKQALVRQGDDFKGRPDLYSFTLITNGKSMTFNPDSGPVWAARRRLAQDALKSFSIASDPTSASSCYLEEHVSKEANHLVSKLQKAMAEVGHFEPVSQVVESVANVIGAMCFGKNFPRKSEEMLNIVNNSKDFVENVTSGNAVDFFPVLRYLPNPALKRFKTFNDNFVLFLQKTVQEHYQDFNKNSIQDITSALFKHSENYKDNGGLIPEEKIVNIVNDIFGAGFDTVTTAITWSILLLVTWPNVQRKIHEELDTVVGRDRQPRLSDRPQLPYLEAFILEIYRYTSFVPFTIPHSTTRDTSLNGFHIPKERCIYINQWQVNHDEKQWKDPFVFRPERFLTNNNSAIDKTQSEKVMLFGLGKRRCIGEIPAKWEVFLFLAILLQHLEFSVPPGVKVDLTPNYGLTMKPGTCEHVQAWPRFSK

[8] = Inhibition of mouse CYP2C8; assay type: ADME
[9] = Inhibition of mouse CYP2C9; assay type: ADME
[10] = Inhibition of mouse CYP2D6; assay type: ADME
[11] = Inhibition of mouse CYP3A4; assay type: ADME
[12] = Stability of the compound in human plasma assessed as half life; assay type: ADME, cell-free
[13] = Stability of the compound in mouse plasma assessed as half life; assay type: ADME, cell-free
[14] = Metabolic stability in human liver microsomes assessed as intrinsic clearance; assay type: ADME, Microsome; conditions: read-out: CLH
[15] = Cmax in BALB/c mouse at 10 mg/kg, po; assay type: ADME, organism-based; parameters: dose 10 mg/kg, route po; conditions: in vivo
[16] = Total AUC in BALB/c mouse at 2 mg/kg, iv; assay type: ADME, organism-based; parameters: dose 2 mg/kg, route iv; conditions: in vivo
[17] = Total AUC in BALB/c mouse at 10 mg/kg, po; assay type: ADME, organism-based; parameters: dose 10 mg/kg, route po; conditions: in vivo
[18] = Tmax in BALB/c mouse at 10 mg/kg, po; assay type: ADME, organism-based; conditions: in vivo
[19] = Half life in BALB/c mouse at 2 mg/kg, iv; assay type: ADME, organism-based; conditions: in vivo
[20] = Half life in BALB/c mouse at 10 mg/kg, po; assay type: ADME, organism-based; conditions: in vivo
[21] = Clearance in BALB/c mouse at 2 mg/kg, iv; assay type: ADME, organism-based; conditions: in vivo
[22] = Volume of distribution in BALB/c mouse at 2 mg/kg, iv; assay type: ADME, organism-based; conditions: in vivo
[23] = Oral bioavailability in BALB/c mouse at 10 mg/kg; assay type: ADME, organism-based; conditions: in vivo
[24] = molecular target: T4, TGF-beta receptor type-1 (Homo sapiens, UniProt P36897); assay: Inhibition of ALK5 in human Hs-578T cells assessed as effect of TGF-beta-induced […] phosphorylation; assay type: cell-based
T4 sequence (P36897 whole entry): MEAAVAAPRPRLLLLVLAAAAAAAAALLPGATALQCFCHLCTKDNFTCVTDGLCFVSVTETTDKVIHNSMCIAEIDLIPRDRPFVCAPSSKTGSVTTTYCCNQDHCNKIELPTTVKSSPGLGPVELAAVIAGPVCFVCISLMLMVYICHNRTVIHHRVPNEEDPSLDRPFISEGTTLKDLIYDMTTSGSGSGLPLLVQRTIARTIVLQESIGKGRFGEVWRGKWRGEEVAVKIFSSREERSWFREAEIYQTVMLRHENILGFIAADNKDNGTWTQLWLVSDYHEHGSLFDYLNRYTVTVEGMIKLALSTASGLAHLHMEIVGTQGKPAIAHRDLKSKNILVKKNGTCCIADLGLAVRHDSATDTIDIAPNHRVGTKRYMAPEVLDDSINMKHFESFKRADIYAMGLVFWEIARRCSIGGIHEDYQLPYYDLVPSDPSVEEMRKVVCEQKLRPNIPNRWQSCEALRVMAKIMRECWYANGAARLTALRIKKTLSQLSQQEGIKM

[25] = molecular target: T4, TGF-beta receptor type-1; assay: Inhibition of human ALK5 by Kinase Glo luminescence assay

Cytochrome P450 3A4, sequence (P08684 whole entry): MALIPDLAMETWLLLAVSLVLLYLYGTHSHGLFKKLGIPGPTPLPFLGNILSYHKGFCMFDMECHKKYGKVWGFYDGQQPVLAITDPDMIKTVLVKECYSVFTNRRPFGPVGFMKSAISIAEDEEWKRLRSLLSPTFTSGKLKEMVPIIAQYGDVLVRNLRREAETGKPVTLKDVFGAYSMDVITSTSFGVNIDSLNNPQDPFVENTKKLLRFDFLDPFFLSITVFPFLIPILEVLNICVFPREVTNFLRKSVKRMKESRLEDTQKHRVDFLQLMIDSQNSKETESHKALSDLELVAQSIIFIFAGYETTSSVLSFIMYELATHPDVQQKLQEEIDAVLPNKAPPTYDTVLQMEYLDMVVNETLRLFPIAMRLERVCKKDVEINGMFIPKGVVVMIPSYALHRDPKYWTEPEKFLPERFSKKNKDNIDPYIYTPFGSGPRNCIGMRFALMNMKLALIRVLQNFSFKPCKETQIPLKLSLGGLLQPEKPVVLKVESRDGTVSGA

Structure (SMILES): Cc1cccc(-c2[nH]c(NCc3cccc(F)c3)nc2-c2ccc3c(cnn3C)c2)n1
IC50 [1]: > 10 µM
IC50 [2]: > 10 µM
IC50 [3]: > 10 µM
IC50 [4]: > 10 µM
IC50 [5]: > 10 µM
IC50 [6]: > 10 µM
IC50 [7]: 71.5 µM
IC50 [8]: 34.1 µM
IC50 [9]: 27.8 µM
IC50 [10]: 26.2 µM
IC50 [11]: 20.5 µM
half-life [12]: > 2 h
half-life [13]: > 2 h
microsomal CLint [14]: 29.8 µL/min/mg
Cmax [15]: 1530 ng/mL
AUC [16]: 870 ng·h/mL
AUC [17]: 3030 ng·h/mL
Tmax [18]: 0.4 h
half-life [19]: 1.6 h
half-life [20]: 1.6 h
clearance [21]: 38.4 mL/min/kg
Vd [22]: 5.1 L/kg
bioavailability [23]: 69.6%

Structure (SMILES): Cc1cccc(-c2[nH]c(NCc3cccc(F)c3)nc2-c2ccc3c(cnn3C(F)F)c2)n1
IC50 [1]: > 10 µM
IC50 [2]: > 10 µM
IC50 [3]: > 10 µM
IC50 [4]: > 10 µM
IC50 [5]: 8.5 µM
IC50 [6]: > 10 µM

Structure (SMILES): CCn1ncc2cc(-c3nc(NCc4cccc(F)c4)[nH]c3-c3cccc(C)n3)ccc21
IC50 [6]: > 10 µM

Structure (SMILES): [2H]C([2H])([2H])n1ncc2cc(-c3nc(NCc4cccc(F)c4)[nH]c3-c3cccc(C)n3)ccc21
IC50 [7]: 67 µM
IC50 [8]: 38.7 µM
IC50 [9]: 22.1 µM
IC50 [10]: 20.5 µM
IC50 [11]: 16 µM
half-life [12]: > 2 h
half-life [13]: > 2 h
microsomal CLint [14]: 23.1 µL/min/mg
Cmax [15]: 1720 ng/mL
AUC [16]: 1170 ng·h/mL
AUC [17]: 3940 ng·h/mL
Tmax [18]: 0.4 h
half-life [19]: 1.5 h
half-life [20]: 1.6 h
clearance [21]: 29 mL/min/kg
Vd [22]: 3.8 L/kg
bioavailability [23]: 67.6%

Structure (SMILES): Cc1cccc(-c2[nH]c(NCc3cccc(F)c3)nc2-c2ccc3c(cnn3S(C)(=O)=O)c2)n1
IC50 [24]: > 0.3 µM
IC50 [1]: > 10 µM
IC50 [2]: > 10 µM
IC50 [3]: > 10 µM
IC50 [4]: > 10 µM
IC50 [5]: 9.4 µM
IC50 [6]: > 10 µM

Structure (SMILES): Cc1cccc(-c2[nH]c(NCc3ccccc3F)nc2-c2ccc3[nH]ccc3c2)n1
IC50 [25]: > 10 µM
IC50 [24]: > 0.3 µM

Next, values leading:

IC50 [1]: > 10 µM
IC50 [2]: > 10 µM
IC50 [3]: > 10 µM
IC50 [4]: > 10 µM
IC50 [5]: > 10 µM
Structure (SMILES): Cc1cccc(-c2[nH]c(NCc3ccc(Cl)c(Cl)c3)nc2-c2ccc3[nH]ncc3c2)n1

IC50 [1]: 8 µM
IC50 [2]: 4.8 µM
IC50 [3]: 3.6 µM
IC50 [4]: 0.5 µM
IC50 [5]: > 10 µM
Structure (SMILES): Cc1cccc(-c2[nH]c(NCc3cccc(Cl)c3F)nc2-c2ccc3[nH]ncc3c2)n1

IC50 [1]: > 10 µM
IC50 [2]: 4.1 µM
IC50 [3]: 4.3 µM
IC50 [4]: 0.4 µM
IC50 [5]: 8.6 µM
Structure (SMILES): Cc1cccc(-c2[nH]c(NCc3ccc(F)c(F)c3)nc2-c2ccc3[nH]ncc3c2)n1

IC50 [1]: 8.7 µM
IC50 [2]: 6.7 µM
IC50 [3]: 3.1 µM
IC50 [4]: 0.4 µM
IC50 [5]: 8.8 µM
Structure (SMILES): Cc1cccc(-c2[nH]c(NCc3ccc(Cl)cc3F)nc2-c2ccc3[nH]ncc3c2)n1

IC50 [1]: > 10 µM
IC50 [2]: 8.8 µM
IC50 [3]: 7.2 µM
IC50 [4]: 1.4 µM
IC50 [5]: > 10 µM
Structure (SMILES): Cc1cccc(-c2[nH]c(NCc3ccccc3F)nc2-c2ccc3[nH]ncc3c2)n1

IC50 [1]: > 10 µM
IC50 [2]: 6.9 µM
IC50 [3]: 4.3 µM
IC50 [4]: 0.6 µM
IC50 [5]: > 10 µM
Structure (SMILES): Cc1cccc(-c2[nH]c(NCc3cccc(F)c3F)nc2-c2ccc3[nH]ncc3c2)n1

IC50 [1]: > 10 µM
IC50 [2]: 5.8 µM
IC50 [3]: 3.3 µM
IC50 [4]: 0.5 µM
IC50 [5]: 8.7 µM
Structure (SMILES): Cc1cccc(-c2[nH]c(NCc3ccc(F)cc3F)nc2-c2ccc3[nH]ncc3c2)n1

IC50 [1]: > 10 µM
IC50 [2]: 6.7 µM
IC50 [3]: 8.6 µM
IC50 [4]: 1.1 µM
IC50 [5]: > 10 µM
IC50 [6]: > 10 µM
Structure (SMILES): Cc1cccc(-c2[nH]c(NCc3cccc(F)c3)nc2-c2ccc3[nH]ncc3c2)n1
